Test [1] concerns S. pombe bir1-46 (Sp287). Nature of the test: Growth of bir1-46 on YES plates with thiabendazole. The following applies: 10 μg/ml TBZ, permissive temperature (28° C.), 3 days. The format is cell-based. The protocol:
Briefly, to identify the phenotypes of the temperature sensitive allele, bir1-46, Wild-type and bir1-46 (Sp287) were streaked out on YES plates or 10 μg/ml of thiabendazole (TBZ), followed by incubation at either 28° C. or 32° C. for 3 days. Wild-type, bir1-46, and a rad3Δ were grown in YES medium to mid log phase (O.D.595=0.5-0.6) and then plated on YES plates followed by UV irradiation. Plates were cultured at 28° C. with a foil cover for 1 day and without a foil cover for subsequent 4 days. Colony numbers were calculated and survival rates were determined based on control plates, which were not irradiated. bir1-46 was transformed with vector alone (pUR19), pUR19-bir1^+, pUR19-Bsh3^+, or pUR19-pic1^+. Transformants were streaked out on YES plates followed by incubation at either 28° C. or 34° C. for 3 days. To conduct the high-copy suppressor screen, Sp287 (bir-46) was transformed with either a cDNA or genomic DNA library. Transformants were incubated at 28° C. for 20 hr followed by further incubation at 34° C. for five days.
Given that bir1^+ is required for chromosome segregation and cytokinesis, it is plausible that bir1^+ is also involved in mitotic spindle integrity.

For test [2], the system named is HeLa cells. The experiment in a line: siRNA depletion in thymidine-synchronized HeLa cells, immunofluorescence staining of metaphase cells, with or without Vinblastine. The format is cell-based, human. As to conditions: Buffer-transfected cells. The protocol:
To further analyze the mitotic defects apparent in Bsh3-depleted cells, siRNA depletion was performed using thymidine-synchronized cells. Briefly, HeLa cells were blocked by thymidine 40 hr after siRNA transfection. After 20 hr of thymidine treatment, cells were washed and cultured in thymidine free media for 14 hr, followed by immunofluorescence staining analysis using the anti-centromere antibody, ANA-C (Sigma). Chromosomes and mitotic spindles were localized by Hoechst and anti-α-tubulin staining, respectively. […] To distinguish these two possibilities, siRNA depletion and video-microscopy were performed using a HeLa cell line expressing the histone H2B-GFP fusion protein. While the wild-type cells were able to congress and segregate their chromosomes in 45-60 min, siRNA treated cells (30%) took more than 2 hr for the same process due to the fact that some chromosomes were delayed in alignment at the metaphase plate. […] However, only 0.34% of buffer-treated cells remained in metaphase (Table 1).
To confirm this interpretation, it was analyzed whether human Bsh3 depleted cells were more sensitive to Vinblastine (VBL), a microtubule-disrupting drug. It has been shown that a low concentration of VBL (nM) alters microtubule dynamics without depolymerizing microtubules. As a result, it affects chromosome movement during metaphase and delays chromosome congression. In addition Vinblastine disrupts kinetochore tension without affecting spindle-kinetochore attachment.
siRNA depletion using thymidine-synchronized cells, which were released into culture media with different concentrations of VBL for 14 hr, was followed by immunofluorescence staining as described in the previous section.

Test [3] relates to HL-60, a promylocytic cell line. Nature of the test: Bsh3 expression in HL-60 cells after treatment. The following applies: HL60 cells treated with the agent. The test is classed as cell-based. The source says:
In addition to being a marker of tumor aggressiveness and treatment potential, Bsh3 expression can be used as a measurement of the effectiveness of anti-tumor therapy. In the Examples, it is shown that HL-60, a promylocytic cell line, had high levels of Bsh3 expression. […] The reduction in expression correlated with the degree of differentiation, the greater the differentiation, the lower the level of Bsh3 expression. Accordingly, Bsh3 expression can be used to measure the effectiveness of anti-tumor treatment: if Bsh3 expression decreases during treatment, the treatment protocol is effective and can be continued, whereas if Bsh3 expression remains unaltered, a different therapeutic regime or protocol needs to be performed.

SMILES strings stand for the structures.

The values that follow come from US20060057153A1, “Method and composition for the inhibition of mitosis” (priority 2002, published 2006).

On to `c1ccc2[nH]c(-c3cscn3)nc2c1` [TBZ, Thiabendazole], for which the “growth of bir1-46” value in test [1] is listed as “failed to grow”.

On to `CC[C@]1(O)C[C@@H]2CN(CCc3c([nH]c4ccccc34)[C@@](C(=O)OC)(c3cc4c(cc3OC)N(C)[C@H]3[C@@](O)(C(=O)OC)[C@H](OC(C)=O)[C@]5(CC)C=CCN6CC[C@]43[C@@H]65)C2)C1` [VBL, Vinblastine], for which the “% of cells in metaphase” value is on record as 1.5% in test [2] (VBL 0.1 nM for 14 hr), 1.7% in test [2] (VBL 0.5 nM for 14 hr) and 13.6% in test [2] (VBL 1 nM for 14 hr).

Regarding `CC1=C(/C=C/C(C)=C/C=C/C(C)=C/C(=O)O)C(C)(C)CCC1` [retenoic acid], the Bsh3 expression entry in test [3] was “reduction and elimination of Bsh3 expression”.
